# Experimental data as given in ChEMBL document CHEMBL1201862, “PubChem BioAssay data set” (2004).
# Calls of active or inactive are those of the source.
# Legend:
# [1] = biological target: T1, Alkaline phosphatase, tissue-nonspecific isozyme (Homo sapiens, UniProt P05186)
# T1 sequence (P05186 whole entry): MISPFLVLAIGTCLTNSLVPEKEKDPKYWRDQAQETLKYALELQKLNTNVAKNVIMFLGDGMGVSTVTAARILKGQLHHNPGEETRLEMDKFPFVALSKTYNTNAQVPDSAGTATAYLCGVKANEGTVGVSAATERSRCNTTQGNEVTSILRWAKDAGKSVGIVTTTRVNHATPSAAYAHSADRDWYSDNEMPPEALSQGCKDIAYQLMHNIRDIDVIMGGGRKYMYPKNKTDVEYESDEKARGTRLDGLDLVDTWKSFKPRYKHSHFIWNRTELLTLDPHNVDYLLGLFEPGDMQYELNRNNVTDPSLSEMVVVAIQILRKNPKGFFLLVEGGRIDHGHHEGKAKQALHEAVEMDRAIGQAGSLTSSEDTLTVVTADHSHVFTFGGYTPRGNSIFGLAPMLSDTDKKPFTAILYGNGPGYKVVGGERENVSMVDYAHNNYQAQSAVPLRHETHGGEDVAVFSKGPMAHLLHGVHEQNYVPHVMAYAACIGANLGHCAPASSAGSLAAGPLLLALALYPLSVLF
# [2] = biological target: X-box-binding protein 1 (Homo sapiens, UniProt P17861); assay type: functional, Cricetulus griseus;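 further: confirmatory dose-response counter-screen serving a CHOP assay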
# Sequence of X-box-binding protein 1 (P17861 whole entry): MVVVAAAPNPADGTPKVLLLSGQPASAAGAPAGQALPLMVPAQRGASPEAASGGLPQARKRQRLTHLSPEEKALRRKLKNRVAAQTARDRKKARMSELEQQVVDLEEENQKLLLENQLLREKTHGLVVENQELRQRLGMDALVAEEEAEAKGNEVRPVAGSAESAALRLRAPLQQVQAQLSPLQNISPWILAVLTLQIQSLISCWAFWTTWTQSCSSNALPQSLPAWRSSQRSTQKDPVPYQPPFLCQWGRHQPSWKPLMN
# [3] = biological target: Cytochrome P450 2C19 (Homo sapiens, UniProt P33261); assay: Cytochrome panel assay with activity outcomes. Panel member name: p450-cyp2c19 Compounds with AC50 equal or less than 10 uM are considered active; assay type: functional; settings: read-out: AC50
# Sequence of Cytochrome P450 2C19 (P33261 whole entry): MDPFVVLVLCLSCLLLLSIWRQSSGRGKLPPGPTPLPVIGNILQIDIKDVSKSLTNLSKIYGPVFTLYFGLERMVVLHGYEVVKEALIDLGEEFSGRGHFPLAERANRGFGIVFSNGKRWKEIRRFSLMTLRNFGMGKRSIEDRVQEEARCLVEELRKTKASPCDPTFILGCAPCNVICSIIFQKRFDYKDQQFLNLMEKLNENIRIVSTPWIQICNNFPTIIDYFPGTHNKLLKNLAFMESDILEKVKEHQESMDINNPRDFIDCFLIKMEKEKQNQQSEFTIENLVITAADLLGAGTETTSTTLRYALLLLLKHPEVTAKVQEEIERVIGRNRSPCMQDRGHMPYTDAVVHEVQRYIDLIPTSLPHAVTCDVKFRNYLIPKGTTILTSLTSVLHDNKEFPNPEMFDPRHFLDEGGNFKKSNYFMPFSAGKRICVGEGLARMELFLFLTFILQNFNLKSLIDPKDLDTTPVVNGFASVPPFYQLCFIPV
# [4] = biological target: T2, Aryl hydrocarbon receptor (Homo sapiens, UniProt P35869); assay: Luminescence-based cell-based high throughput dose response assay for activators of the Aryl Hydrocarbon Receptor (AHR). [Related pubchem assays: 2796 (Primary screen (AHR activators in singlicate)), 2845 (Confirmation screen (AHR activators in triplicate)), 434939 (Counterscreen (PXR activators in triplicate)), 2804 (Summary (AHR activators))]; assay type: ADME
# T2 sequence (P35869 whole entry): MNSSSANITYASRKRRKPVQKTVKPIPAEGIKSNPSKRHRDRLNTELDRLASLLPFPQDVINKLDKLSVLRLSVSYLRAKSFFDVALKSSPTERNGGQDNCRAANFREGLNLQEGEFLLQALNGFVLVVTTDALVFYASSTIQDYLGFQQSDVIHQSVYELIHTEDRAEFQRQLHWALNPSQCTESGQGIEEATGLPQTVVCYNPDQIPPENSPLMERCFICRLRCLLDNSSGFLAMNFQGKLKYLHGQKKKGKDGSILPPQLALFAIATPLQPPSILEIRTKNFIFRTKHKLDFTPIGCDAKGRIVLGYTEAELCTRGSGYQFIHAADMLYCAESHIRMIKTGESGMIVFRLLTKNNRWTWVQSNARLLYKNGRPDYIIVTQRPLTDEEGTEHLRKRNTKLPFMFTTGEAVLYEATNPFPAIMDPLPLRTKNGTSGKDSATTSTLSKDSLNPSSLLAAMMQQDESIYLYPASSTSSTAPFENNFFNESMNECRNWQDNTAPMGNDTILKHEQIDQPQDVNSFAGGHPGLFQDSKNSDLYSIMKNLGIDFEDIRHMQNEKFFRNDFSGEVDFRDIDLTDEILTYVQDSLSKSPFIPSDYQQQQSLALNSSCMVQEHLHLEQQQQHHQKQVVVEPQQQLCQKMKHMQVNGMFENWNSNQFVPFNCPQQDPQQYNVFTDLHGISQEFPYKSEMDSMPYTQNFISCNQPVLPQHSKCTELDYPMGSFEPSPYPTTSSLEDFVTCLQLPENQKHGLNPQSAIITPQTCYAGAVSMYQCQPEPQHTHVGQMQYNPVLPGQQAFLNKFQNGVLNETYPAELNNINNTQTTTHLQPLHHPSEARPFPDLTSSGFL
# [5] = tested on: Streptococcus sp. 'group A'; assay: Streptococcus pyogenes SK(-)GAS viability under kanamycin – luminescence, BacTiterGlo, confirmation, counter-screen for streptokinase expression inhibitor project, dose response (AID 1900); assay type: functional, organism-based
# [6] = tested on: Streptococcus; assay: GAS UMAA2166 growth inhibition – luminescence, BacTiterGlo, counter-screen for streptokinase expression inhibitor project, dose response (AID 1915); assay type: functional, organism-based;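 further: potency for reduction of bacterial viability or growth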
# [7] = tested on: Vero; assay: viability of Vero cells under compound – cytotoxicity control for flavivirus capping enzyme inhibitors (AID 588742); assay type: functional; settings: Chlorocebus sabaeus
# [8] = biological target: Genome polyprotein (dengue virus type 2, UniProt P29990); assay: flavivirus cap methylation enzyme inhibition – biochemical, confirmation dose response, primary screen (AID 588689); assay type: functional
# Sequence of Genome polyprotein (P29990 2492-3391 limits assumed): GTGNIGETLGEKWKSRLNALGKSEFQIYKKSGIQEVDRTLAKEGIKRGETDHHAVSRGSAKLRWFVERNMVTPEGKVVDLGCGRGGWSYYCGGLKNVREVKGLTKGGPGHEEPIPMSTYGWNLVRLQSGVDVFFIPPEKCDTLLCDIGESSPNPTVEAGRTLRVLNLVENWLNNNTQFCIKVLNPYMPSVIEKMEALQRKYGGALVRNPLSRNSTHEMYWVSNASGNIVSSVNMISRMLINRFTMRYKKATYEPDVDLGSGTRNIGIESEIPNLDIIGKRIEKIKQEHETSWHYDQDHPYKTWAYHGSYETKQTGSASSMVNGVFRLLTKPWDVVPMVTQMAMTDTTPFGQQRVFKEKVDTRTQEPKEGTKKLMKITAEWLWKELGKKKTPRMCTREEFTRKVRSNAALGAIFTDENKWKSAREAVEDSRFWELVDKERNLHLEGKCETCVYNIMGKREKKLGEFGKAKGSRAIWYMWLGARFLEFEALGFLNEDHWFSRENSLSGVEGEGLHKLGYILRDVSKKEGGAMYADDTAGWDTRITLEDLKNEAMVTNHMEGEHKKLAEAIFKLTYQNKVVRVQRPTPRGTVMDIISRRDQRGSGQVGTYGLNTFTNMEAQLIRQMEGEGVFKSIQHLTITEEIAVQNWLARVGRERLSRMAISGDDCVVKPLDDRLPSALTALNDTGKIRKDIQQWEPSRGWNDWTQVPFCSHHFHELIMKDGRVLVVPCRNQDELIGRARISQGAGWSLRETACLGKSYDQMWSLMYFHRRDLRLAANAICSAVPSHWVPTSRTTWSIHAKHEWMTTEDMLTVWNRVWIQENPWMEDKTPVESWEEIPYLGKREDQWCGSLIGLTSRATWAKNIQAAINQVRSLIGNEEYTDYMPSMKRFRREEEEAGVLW
# [9] = Luminescence Cell-Based Dose Confirmation HTS to Identify Inhibitors of Polyadenylation.; assay type: functional
# [10] = A cytotoxicity screen of small molecule inhibitors of the PhoP region in Salmonella typhi identified in the primary screen. [Related pubchem assays: 1850, 1864, 1985 ]; assay type: functional
structure (smiles),measurement,setting,value
O=C(COC(=O)C1CC(=O)N(Cc2ccccc2)C1)Nc1ccc(Cl)cc1F (configuration not stated),EC50,[1],> 100 µM (not active)
CCOC(=O)c1[nH]c2ccc(Cl)cc2c1-c1ccccc1,Absolute IC50 (XBP1),[2],10 µM
same,AC50,[3],4.47 µM (inconclusive)
Cc1nc(Cl)sc1C(=O)Nc1ccc(C(F)(F)F)cc1,EC50,[4],1.57 µM (active)
Fc1cccc2sc(Nc3nnc(-c4ccccc4)o3)nc12,EC50,[5],2 µM (active)
same,EC50,[1],44.2 µM (active)
same,EC50,[6],6.97 µM (active)
same,CC50,[7],27 µM (active)
same,IC50,[8],50.2 µM (active)
CC(NC(=O)CCCCCCN1C(=O)c2ccccc2C1=O)c1ccc2c(c1)CCCC2 (configuration not stated),EC50,[9],> 120 µM (not active)
Clc1ccc2[nH]c(N3CCCCC3)nc2c1,EC50,[10],> 50 µM (active)
Cc1ccc(C2CC(=O)NC(SCCC(C)C)=C2C#N)cc1 (configuration not stated),EC50,[10],> 50 µM (active)
